pEC50: −log10 of the molar value. Read-outs that look alike come from different tables or passages of the source.
System: recombinant NL4-3 virus (Renilla luciferase in nef, Gag P373S)
Assay: HIV Cell Culture Assay (luciferase reporter virus in MT-2 cells)
Assay type: cell-based
Procedure: MT-2 cells and 293T cells were obtained from the NIH AIDS Research and Reference Reagent Program. MT-2 cells were propagated in RPMI 1640 media supplemented with 10% heat inactivated fetal bovine serum, […]. The 293T cells were propagated in DMEM media supplemented with 10% heat inactivated fetal bovine serum (FBS), 100 units/ml penicillin G and 100 μg/ml streptomycin. The proviral DNA clone of NL4-3 was obtained from the NIH AIDS Research and Reference Reagent Program. A recombinant NL4-3 virus, in which a section of the nef gene from NL4-3 was replaced with the Renilla luciferase gene, was used as a reference virus. In addition, residue Gag P373 was converted to P373S. Briefly, the recombinant virus was prepared by transfection of the altered proviral clone of NL4-3. Transfections were performed in 293T cells using LipofectAMINE PLUS from Invitrogen (Carlsbad, Calif.), according to manufacturer's instruction. The virus was titered in MT-2 cells using luciferase enzyme activity as a marker. Luciferase was quantitated using the Dual Luciferase kit from Promega (Madison, Wis.), with modifications to the manufacturer's protocol. The diluted Passive Lysis solution was pre-mixed with the re-suspended Luciferase Assay Reagent and the re-suspended Stop & Glo Substrate (2:1:1 ratio). Fifty (50) μL of the mixture was added to each aspirated well on assay plates and luciferase activity was measured immediately on a Wallac TriLux (Perkin-Elmer). Antiviral activities of inhibitors toward the recombinant virus were quantified by measuring luciferase activity in cells infected for 4-5 days with NLRluc recombinants in the presence serial dilutions of the inhibitor. Table 1 is the key for the data in Table 2.

Row | SMILES | pEC50 (NL43, read-out: EC50 Group) | pEC50 (NL43)
1 | C=C(C)[C@@H]1CC[C@]2(C(=O)N(C)CCN(C)C)CC[C@]3(C)[C@H](CC[C@@H]4[C@@]5(C)CC=C(c6ccc(C(=O)O)cc6)C(C)(C)[C@@H]5CC[C@]43C)[C@@H]12 [Example 31, 4-((1R,3aS,5aR,5bR,7aR,11aS,11bR,13aR,13bR)-3a-((2-(dimethylamino)ethyl)(methyl)carbamoyl)-5a,5b,8,8,11a-pentamethyl-1-(prop-1-en-2-yl)-2,3,3a,4,5,5a,5b,6,7,7a,8,11,11a,11b,12,13,13a,13b-octadecahydro-1H-cyclopenta[a]chrysen-9-yl)benzoic acid] | > 7.00 | 
2 | C=C(C)[C@@H]1CC[C@]2(C(=O)NCCCN3CCOCC3)CC[C@]3(C)[C@H](CC[C@@H]4[C@@]5(C)CC=C(c6ccc(C(=O)O)cc6)C(C)(C)[C@@H]5CC[C@]43C)[C@@H]12 [Example 32, 4-((1R,3aS,5aR,5bR,7aR,11aS,11bR,13aR,13bR)-5a,5b,8,8,11a-pentamethyl-3a-(3-morpholinopropylcarbamoyl)-1-(prop-1-en-2-yl)-2,3,3a,4,5,5a,5b,6,7,7a,8,11,11a,11b,12,13,13a,13b-octadecahydro-1H-cyclopenta[a]chrysen-9-yl)benzoic acid] | > 7.00 | 
3 | C=C(C)[C@@H]1CC[C@]2(C(=O)NCCN3CCCCC3)CC[C@]3(C)[C@H](CC[C@@H]4[C@@]5(C)CC=C(c6ccc(C(=O)O)cc6)C(C)(C)[C@@H]5CC[C@]43C)[C@@H]12 [Example 33, 4-((1R,3aS,5aR,5bR,7aR,11aS,11bR,13aR,13bR)-5a,5b,8,8,11a-pentamethyl-3a-(2-(piperidin-1-yl)ethylcarbamoyl)-1-(prop-1-en-2-yl)-2,3,3a,4,5,5a,5b,6,7,7a,8,11,11a,11b,12,13,13a,13b-octadecahydro-1H-cyclopenta[a]chrysen-9-yl)benzoic acid] | > 7.00 | 
4 | C=C(C)[C@@H]1CC[C@]2(C(=O)NCC(N)=O)CC[C@]3(C)[C@H](CC[C@@H]4[C@@]5(C)CC=C(c6ccc(C(=O)O)cc6)C(C)(C)[C@@H]5CC[C@]43C)[C@@H]12 [Example 34, 4-((1R,3aS,5aR,5bR,7aR,11aS,11bR,13aR,13bR)-3a-(2-amino-2-oxoethylcarbamoyl)-5a,5b,8,8,11a-pentamethyl-1-(prop-1-en-2-yl)-2,3,3a,4,5,5a,5b,6,7,7a,8,11,11a,11b,12,13,13a,13b-octadecahydro-1H-cyclopenta[a]chrysen-9-yl)benzoic acid] | > 7.00 | 
5 | C=C(C)[C@@H]1CC[C@]2(C(=O)NCC(c3cccnc3)N(C)C)CC[C@]3(C)[C@H](CC[C@@H]4[C@@]5(C)CC=C(c6ccc(C(=O)O)cc6)C(C)(C)[C@@H]5CC[C@]43C)[C@@H]12 (stereo partly drawn) [Example 35, 4-((1R,3aS,5aR,5bR,7aR,11aS,11bR,13aR,13bR)-3a-(2-(dimethylamino)-2-(pyridin-3-yl)ethylcarbamoyl)-5a,5b,8,8,11a-pentamethyl-1-(prop-1-en-2-yl)-2,3,3a,4,5,5a,5b,6,7,7a,8,11,11a,11b,12,13,13a,13b-octadecahydro-1H-cyclopenta[a]chrysen-9-yl)benzoic acid] | > 7.00 | 
6 | C=C(C)[C@@H]1CC[C@]2(C(=O)NCCN3CCN(C)CC3)CC[C@]3(C)[C@H](CC[C@@H]4[C@@]5(C)CC=C(c6ccc(C(=O)O)cc6)C(C)(C)[C@@H]5CC[C@]43C)[C@@H]12 [Example 36, 4-((1R,3aS,5aR,5bR,7aR,11aS,11bR,13aR,13bR)-5a,5b,8,8,11a-pentamethyl-3a-(2-(4-methylpiperazin-1-yl)ethylcarbamoyl)-1-(prop-1-en-2-yl)-2,3,3a,4,5,5a,5b,6,7,7a,8,11,11a,11b,12,13,13a,13b-octadecahydro-1H-cyclopenta[a]chrysen-9-yl)benzoic acid] | > 7.00 | 
7 | C=C(C)[C@@H]1CC[C@]2(C(=O)NCCN3CCN(C(=O)OC(C)(C)C)CC3)CC[C@]3(C)[C@H](CC[C@@H]4[C@@]5(C)CC=C(c6ccc(C(=O)O)cc6)C(C)(C)[C@@H]5CC[C@]43C)[C@@H]12 [Example 37, 4-((1R,3aS,5aR,5bR,7aR,11aS,11bR,13aR,13bR)-3a-(2-(4-(tert-butoxycarbonyl)piperazin-1-yl)ethylcarbamoyl)-5a,5b,8,8,11a-pentamethyl-1-(prop-1-en-2-yl)-2,3,3a,4,5,5a,5b,6,7,7a,8,11,11a,11b,12,13,13a,13b-octadecahydro-1H-cyclopenta[a]chrysen-9-yl)benzoic acid] | > 7.00 | 
8 | C=C(C)[C@@H]1CC[C@]2(C(=O)NCC(C)(C)N)CC[C@]3(C)[C@H](CC[C@@H]4[C@@]5(C)CC=C(c6ccc(C(=O)O)cc6)C(C)(C)[C@@H]5CC[C@]43C)[C@@H]12 [Example 38, 4-((1R,3aS,5aR,5bR,7aR,11aS,11bR,13aR,13bR)-3a-(2-amino-2-methylpropylcarbamoyl)-5a,5b,8,8,11a-pentamethyl-1-(prop-1-en-2-yl)-2,3,3a,4,5,5a,5b,6,7,7a,8,11,11a,11b,12,13,13a,13b-octadecahydro-1H-cyclopenta[a]chrysen-9-yl)benzoic acid] | > 7.00 | 
9 | C=C(C)[C@@H]1CC[C@]2(C(=O)NCC3CCCN3CC)CC[C@]3(C)[C@H](CC[C@@H]4[C@@]5(C)CC=C(c6ccc(C(=O)O)cc6)C(C)(C)[C@@H]5CC[C@]43C)[C@@H]12 (stereo partly drawn) [Example 39, 4-((1R,3aS,5aR,5bR,7aR,11aS,11bR,13aR,13bR)-3a-((1-ethylpyrrolidin-2-yl)methylcarbamoyl)-5a,5b,8,8,11a-pentamethyl-1-(prop-1-en-2-yl)-2,3,3a,4,5,5a,5b,6,7,7a,8,11,11a,11b,12,13,13a,13b-octadecahydro-1H-cyclopenta[a]chrysen-9-yl)benzoic acid] | > 7.00 | 
10 | C=C(C)[C@@H]1CC[C@]2(C(=O)NCc3nc4ccccc4[nH]3)CC[C@]3(C)[C@H](CC[C@@H]4[C@@]5(C)CC=C(c6ccc(C(=O)O)cc6)C(C)(C)[C@@H]5CC[C@]43C)[C@@H]12 [Example 40, 4-((1R,3aS,5aR,5bR,7aR,11aS,11bR,13aR,13bR)-3a-((1H-benzo[d]imidazol-2-yl)methylcarbamoyl)-5a,5b,8,8,11a-pentamethyl-1-(prop-1-en-2-yl)-2,3,3a,4,5,5a,5b,6,7,7a,8,11,11a,11b,12,13,13a,13b-octadecahydro-1H-cyclopenta[a]chrysen-9-yl)benzoic acid] | > 7.00 | 
11 | C=C(C)[C@@H]1CC[C@]2(C(=O)NCc3nccs3)CC[C@]3(C)[C@H](CC[C@@H]4[C@@]5(C)CC=C(c6ccc(C(=O)O)cc6)C(C)(C)[C@@H]5CC[C@]43C)[C@@H]12 [Example 41, 4-((1R,3aS,5aR,5bR,7aR,11aS,11bR,13aR,13bR)-5a,5b,8,8,11a-pentamethyl-1-(prop-1-en-2-yl)-3a-(thiazol-2-ylmethylcarbamoyl)-2,3,3a,4,5,5a,5b,6,7,7a,8,11,11a,11b,12,13,13a,13b-octadecahydro-1H-cyclopenta[a]chrysen-9-yl)benzoic acid] | > 7.00 | 
12 | C=C(C)[C@@H]1CC[C@]2(C(=O)NCc3cccs3)CC[C@]3(C)[C@H](CC[C@@H]4[C@@]5(C)CC=C(c6ccc(C(=O)O)cc6)C(C)(C)[C@@H]5CC[C@]43C)[C@@H]12 [Example 42, 4-((1R,3aS,5aR,5bR,7aR,11aS,11bR,13aR,13bR)-5a,5b,8,8,11a-pentamethyl-1-(prop-1-en-2-yl)-3a-(thiophen-2-ylmethylcarbamoyl)-2,3,3a,4,5,5a,5b,6,7,7a,8,11,11a,11b,12,13,13a,13b-octadecahydro-1H-cyclopenta[a]chrysen-9-yl)benzoic acid] |  | 6.92

— patent US8802661B2, “C-28 amides of modified C-3 betulinic acid derivatives as HIV maturation inhibitors” (priority 2010, dated 2014)
